# Reference: US20160354427A1, “METHODS FOR INDUCING EPITHELIAL CANCER CELL SENESCENCE” (Institute for Cancer Research d/b/a The Research Institute …, priority 2011, published 2016)
# Tests used:
# [1] = test system: Wnt5a protein in PEO1 cells; assay: Wnt5a protein expression by immunoblotting after Aza-C treatment; type: cell-based, human; settings: 5 μmol/L Aza-C for 4 days, vs control
# From the text: (§1) FIGS. 2A-2C show promoter DNA CpG island hypermethylation contributes to Wnt5a downregulation in human EOC cells. […] Locations of exon 1 (open rectangle), CpG sites (vertical lines) and coding exons (filled rectangle), and the transcription start site (curved arrow) are indicated. Flat arrows indicate the positions of primers used for PCR amplification, and the size of PCR product is also indicated. […] Mean of 3 independent experiments with SD.
# (§2) RT-PCR, qRT-PCR and immunoblotting. RNA from cultured primary HOSE or human EOC cells was isolated using Trizol (Invitrogen) according to manufacture's instruction. For qRT-PCR, Trizol®—(Molecular Research Center, Inc., Cincinnati, Ohio) isolated RNA was further purified using a RNeasy® mini kit (Qiagen GmbH, Germany). The Wnt5a primers used for qRT-PCR were purchased from Applied Biosystems. Housekeeping β-2-microglobulin or β-actin mRNA expression was used to normalize the Wnt5a mRNA expression. Soluble β-catenin was extracted using a buffer that consisting of 10 mM pH 7.5 Tris-HCl, 0.05% NP-40, 10 mM NaCl, 3 mM MgCl2, 1 mM EDTA and proteinase inhibitors (Roche). The following antibodies were used for immunoblotting: goat anti-Wnt5a (R&D systems), mouse anti-GAPDH (Millipore/Chemicon), mouse anti-β-catenin (BD Bioscience), anti-p53, mouse anti-Rb and mouse anti-β-actin (Sigma Chemical Co.), and rabbit anti-pRBpS780 (Cell Signaling).
# Wnt5a mRNA in PEO1 cells = assay: Wnt5a mRNA expression by qRT-PCR after Aza-C treatment; type: cell-based, human; settings: 5 μmol/L Aza-C for 4 days, vs control
# From the text: as §1, §2
structure (smiles),measurement,setting,value
"Nc1ncn([C@@H]2O[C@H](CO)[C@@H](O)[C@H]2O)c(=O)n1 [Aza-C, 5-Aza-cytadine]",levels of Wnt5a protein,[1],significant increase
same,levels of Wnt5a mRNA,Wnt5a mRNA in PEO1 cells,significant increase
